US7151195B2, “Phthalamide derivative, agricultural or horticultural insecticide, and method of use thereof” (Bayer CropScience LP, priority 2002, dated 2006)

Columns and labels:
Format in all cases: in vivo
[1] = tested on: Smaller Tea Tortrix (Adoxophyes sp.); test: Insecticidal test on smaller tea tortrix (Test Example 3); settings: 50 ppm; tea leaves immersed about 30 seconds; larvae; counted eight days after inoculation; 25° C., humidity 70%
Protocol: Tea leaves were immersed for about 30 seconds in a liquid chemical prepared by diluting a preparation containing each compound listed in Tables 1 to 3 as an active ingredient to adjust the concentration to 50 ppm. After air-dryness, the tea leaves were placed in a plastic Petri dish with a diameter of 9 cm and inoculated with larvae of smaller tea tortrix, after which the dish was allowed to stand in a room thermostatted at 25° C. and having a humidity of 70%. Eight days after the inoculation, the dead and alive larvae were counted and, the mortality was calculated according to the equation shown in Test Example 2, and the insecticidal effect was judged according to the criterion shown in Test Example 1. The test was carried out with triplicate groups of 10 insects.

[2] = tested on: Diamond Back Moth (Plutella xylostella); test: Insecticidal test on diamond back moth (Test Example 1); settings: Chinese cabbage seedling with eggs immersed about 30 seconds, hatched insects counted six days after immersion, 25° C.; for Test Example 1: insecticidal effect (mortality criterion): 50 ppm; for mortality at 50 ppm: Plutella xylostella, 144 h, read-out: Test Example 1: insecticidal effect (mortality criterion)
Protocol: Adult diamond back moths were released and allowed to oviposit on a Chinese cabbage seedling. Two days after the release, the seedling having the eggs deposited thereon was immersed for about 30 seconds in a liquid chemical prepared by diluting a preparation containing each compound listed in Tables 1 to 3 as an active ingredient to adjust the concentration to 50 ppm. After air-dryness, it was allowed to stand in a room thermostatted at 25° C. Six days after the immersion, the hatched insects were counted. The mortality was calculated according to the following equation and the insecticidal effect was judged according to the criterion shown below. The test was carried out with triplicate groups of 10 insects.

[3] = tested on: Common Cutworm (Spodoptera litura); test: Insecticidal test on common cutworm (Test Example 2); settings: cabbage leaf immersed about 30 seconds, second-instar larvae, counted eight days after inoculation, 25° C.; for Test Example 2: insecticidal effect (mortality criterion): 50 ppm; for mortality at 50 ppm: Spodoptera litura, 192 h, read-out: Test Example 2: insecticidal effect (mortality criterion)
Protocol: A piece of cabbage leaf (cultivar; Shikidori) was immersed for about 30 seconds in a liquid chemical prepared by diluting a preparation containing each compound listed in Tables 1 to 3 as an active ingredient to adjust the concentration to 50 ppm. After air-dryness, it was placed in a plastic Petri dish with a diameter of 9 cm and inoculated with second-instar larvae of common cutworm, after which the dish was closed and then allowed to stand in a room thermostatted at 25° C. Eight days after the inoculation, the dead and alive were counted. The mortality was calculated according to the following equation and the insecticidal effect was judged according to the criterion shown in Test Example 1. The test was carried out with triplicate groups of 10 insects.

| SMILES | Test Example 3: insecticidal effect (mortality criterion) [1] | Test Example 1: insecticidal effect (mortality criterion) [2] | Test Example 2: insecticidal effect (mortality criterion) [3] | mortality at 50 ppm [2] [%] | mortality at 50 ppm [3] [%] |
| --- | --- | --- | --- | --- | --- |
| CSCC(C)NC(=O)c1c(I)cccc1C(=O)Nc1ccc(S(F)(F)(F)(F)F)cc1C (stereo not drawn) [1-290] | A (Mortality 100%) | A (Mortality 100%) | A (Mortality 100%) |  |  |
| Cc1cc(S(F)(F)(F)(F)F)ccc1NC(=O)c1cccc(I)c1C(=O)NC(C)CS(C)(=O)=O (stereo not drawn) [1-292] | A (Mortality 100%) | A (Mortality 100%) | A (Mortality 100%) |  |  |
| CSCC(C)(C)NC(=O)c1c(I)cccc1C(=O)Nc1ccc(S(F)(F)(F)(F)F)cc1C [1-296] | A (Mortality 100%) | A (Mortality 100%) | A (Mortality 100%) |  |  |
| Cc1cc(S(F)(F)(F)(F)F)ccc1NC(=O)c1cccc(I)c1C(=O)NC(C)(C)C[S+](C)[O-] (stereo not drawn) [1-297] | A (Mortality 100%) | A (Mortality 100%) | A (Mortality 100%) |  |  |
| Cc1cc(S(F)(F)(F)(F)F)ccc1NC(=O)c1cccc(I)c1C(=O)NC(C)(C)CS(C)(=O)=O [1-298] | A (Mortality 100%) | A (Mortality 100%) | A (Mortality 100%) |  |  |
| CSCC(C)(C)NC(=O)c1c(I)cccc1C(=O)Nc1ccc(S(F)(F)(F)(F)F)cc1Cl [1-372, N^1-(2-chloro-4-pentafluorosulfanylphenyl)-N^2-(1,1-dimethyl-2-methylthioethyl)-3-iodophthalamide] | A (Mortality 100%) |  |  | 100 | 100 |
| CC(C)(CS(C)(=O)=O)NC(=O)c1c(I)cccc1C(=O)Nc1ccc(S(F)(F)(F)(F)F)cc1Cl [1-374, N^1-(2-chloro-4-pentafluorosulfanylphenyl)-N^2-(1,1-dimethyl-2-methylsulfonylethyl)-3-iodophthalamide] | A (Mortality 100%) |  |  | 100 | 100 |
| CSCC(C)(C)NC(=O)c1c(I)cccc1C(=O)Nc1ccc(S(F)(F)(F)(F)F)cc1 [1-458] | A (Mortality 100%) | A (Mortality 100%) | A (Mortality 100%) |  |  |
| CCN(C(=O)c1cccc(I)c1C(=O)NC(C)(C)CSC)c1ccc(S(F)(F)(F)(F)F)cc1 [2-22] | A (Mortality 100%) | A (Mortality 100%) | A (Mortality 100%) |  |  |
| CCN(C(=O)c1cccc(I)c1C(=O)NC(C)(C)C[S+](C)[O-])c1ccc(S(F)(F)(F)(F)F)cc1 (stereo not drawn) [2-23] | E (Mortality 49% or less) | A (Mortality 100%) | A (Mortality 100%) |  |  |
| CCN(C(=O)c1cccc(I)c1C(=O)NC(C)(C)CS(C)(=O)=O)c1ccc(S(F)(F)(F)(F)F)cc1 [2-24] | A (Mortality 100%) | A (Mortality 100%) | A (Mortality 100%) |  |  |
| CSCC(C)(C)NC(=O)c1c(I)cccc1C(=O)Nc1cccc(S(F)(F)(F)(F)F)c1 [3-5] | A (Mortality 100%) | A (Mortality 100%) | E (Mortality 49% or less) |  |  |
| C[S+]([O-])CC(C)(C)NC(=O)c1c(I)cccc1C(=O)Nc1cccc(S(F)(F)(F)(F)F)c1 (stereo not drawn) [3-6] | E (Mortality 49% or less) | A (Mortality 100%) | D (Mortality 79–50%) |  |  |
| CC(C)(CS(C)(=O)=O)NC(=O)c1c(I)cccc1C(=O)Nc1cccc(S(F)(F)(F)(F)F)c1 [3-7] | A (Mortality 100%) | A (Mortality 100%) | A (Mortality 100%) |  |  |
| CSCC(C)(C)NC(=O)c1c(I)cccc1C(=O)Nc1cccc(S(F)(F)(F)(F)F)c1Cl [3-24] | A (Mortality 100%) | A (Mortality 100%) | A (Mortality 100%) |  |  |
| CC(C)(CS(C)(=O)=O)NC(=O)c1c(I)cccc1C(=O)Nc1cccc(S(F)(F)(F)(F)F)c1Cl [3-26] | A (Mortality 100%) | A (Mortality 100%) | A (Mortality 100%) |  |  |
